Results: patent US7034013B2 (priority 2001, dated 2006)
In brackets after ≈: the same amount, converted by molar mass. Where two headings read alike, the source gives them in different places.

How the values were obtained:
[1] = for concentration of uncomplexed propofol in solution / concentration of uncomplexed propofol in solution, % of the total: binding constant 3800 M^−1
hemolysis = conditions: in concentrations typically used to solubilize pharmaceutical formulations; FIG. 1 (Thompson 1997); cited from earlier work
[2] = in the absence of a solubilizing agent; cited from earlier work
physchem = conditions: water, solubility in water
[3] = intravenous injection of a therapeutic dose; cited from earlier work
[4] = CAPTISOL cyclodextrin 14.4% w/v (0.0665M)
[5] = CAPTISOL cyclodextrin 50% w/v (0.231M)

Compound | CAPTISOL® cyclodextrin concentration required to raise aqueous propofol from 0.15 mg/mL to 10 mg/mL ([1]; propofol 10 mg/mL) | hemolytic behavior (hemolysis) | water solubility [2] | concentration of uncomplexed propofol in solution [1, 4] | concentration of uncomplexed propofol in solution, % of the total [1, 4] | concentration of uncomplexed propofol in solution [1, 5] | concentration of uncomplexed propofol in solution, % of the total [1, 5] | solubility (physchem) | time to induction of anesthesia from the start of injection [3] | solubility in water
Sulfobutyl Ether-β-Cyclodextrin [CAPTISOL® cyclodextrin] | 15 % w/v | essentially no hemolytic behavior | – | – | – | – | – | – | – | –
CC(C)c1cccc(C(C)C)c1O [propofol, 2,6-diisopropylphenol] | – | – | approximately 0.154 mg/mL | ~0.00124 M | about 2.21% | ~0.000084 M | about 0.15% | ~150 µg/mL (≈ 841 µM) | ≤ 40 s | 150 µg/mL (≈ 841 µM)
